According to ChEMBL document CHEMBL5584246, “Novel dihydropyrimidines as promising EGFR & HER2 inhibitors: Insights from experimental and computational studies” (Eur J Med Chem, 2024):

Legend:
MCF7 = test: Cytotoxicity against human MCF7 cells assessed as inhibition of cell growth measured after 3 days by MTT assay; format: functional, cell-based; conditions: MCF7, 72 h
[1] = Cytotoxicity against African green monkey Vero cells assessed as inhibition of cell growth measured after 3 days by MTT assay; format: toxicity, cell-based; conditions: African green monkey (Chlorocebus sabaeus)

SMILES | IC50 (MCF7) | IC50 at 3 days [1]
COc1ccc(NC(=O)C2=C(C)NC(=O)NC2c2cccc(Br)c2)c(OC)c1 (stereo not drawn) | 31.2 µM | 48.1 µM
COc1ccc(NC(=O)C2=C(C)NC(=S)NC2c2ccc(Cl)cc2)c(OC)c1 (stereo not drawn) | 38.7 µM | 48.3 µM
COc1ccc(NC(=O)C2=C(C)NC(=S)NC2c2c[nH]c3ccccc23)c(OC)c1 (stereo not drawn) | 29.4 µM | 50.3 µM
COc1ccc(NC(=O)C2=C(C)NC(=S)NC2/C=C\c2ccccc2)c(OC)c1 (stereo not drawn) | 24.5 µM | 47.3 µM
CCOc1cc(C2NC(=O)NC(C)=C2C(=O)Nc2ccc(OC)cc2OC)ccc1O (stereo not drawn) | 21 µM | 58.2 µM
COc1ccc(NC(=O)C2=C(C)NC(=S)NC2c2ccc(O)cc2)c(OC)c1 (stereo not drawn) | 28.6 µM | 40 µM
COc1ccc(NC(=O)C2=C(C)NC(=O)NC2c2ccc(Cl)cc2)c(OC)c1 (stereo not drawn) | 32.4 µM | 62.7 µM
COc1ccc(NC(=O)C2=C(C)NC(=O)NC2c2ccccc2O)c(OC)c1 (stereo not drawn) | 30.1 µM | 45.3 µM
COc1ccc(C2NC(=S)NC(C)=C2C(=O)Nc2ccc(OC)cc2OC)cc1 (stereo not drawn) | 28.1 µM | 32.8 µM
COc1ccc(C2NC(=O)NC(C)=C2C(=O)Nc2ccc(OC)cc2OC)cc1 (stereo not drawn) | 24.3 µM | 56.2 µM
COc1ccc(NC(=O)C2=C(C)NC(=S)NC2c2ccco2)c(OC)c1 (stereo not drawn) | 38.3 µM | 45.5 µM
COc1ccc(NC(=O)C2=C(C)NC(=O)NC2c2ccccc2[N+](=O)[O-])c(OC)c1 (stereo not drawn) | 40.1 µM | 55.3 µM
COc1ccc(NC(=O)C2=C(C)NC(=S)NC2c2ccc(N(C)C)cc2)c(OC)c1 (stereo not drawn) | 25.1 µM | 53.1 µM
COc1ccc(NC(=O)C2=C(C)NC(=O)NC2c2ccccc2)c(OC)c1 (stereo not drawn) | 38.2 µM | 60.4 µM
COc1ccc(NC(=O)C2=C(C)NC(=O)NC2c2ccc(O)cc2)c(OC)c1 (stereo not drawn) | 29.3 µM | 55.2 µM
COc1ccc(NC(=O)C2=C(C)NC(=S)NC2c2ccc(OC)c(OC)c2)c(OC)c1 (stereo not drawn) | 17.3 µM | 43.9 µM
COc1ccc(NC(=O)C2=C(C)NC(=O)NC2c2ccc(N(C)C)cc2)c(OC)c1 (stereo not drawn) | 19.5 µM | 53.1 µM
COc1ccc(NC(=O)C2=C(C)NC(=S)NC2c2ccccc2)c(OC)c1 (stereo not drawn) | 45.3 µM | 53.4 µM
COc1ccc(NC(=O)C2=C(C)NC(=O)NC2c2ccc(Br)cc2)c(OC)c1 (stereo not drawn) | 31.6 µM | 49.4 µM
